Common to all, as to format: physicochemical
Data set [1] can be described thus: Solubility assessment at room temperature by solvent aliquot addition and visual inspection. To be noted: thermodynamic from solid. The method, then:
(§1) The solubility of ACH-0142684 sodium salt was determined at room temperature using the following procedure. The input material (˜10 mg) was weighed into each of 12 vials, followed by addition of a solvent in multiple aliquots between 50μL to 10-mL at room temperature. Samples were visually inspected for complete dissolution after each solvent addition. The solubility of crystalline ACH-0142684 sodium salt is summarized in TABLE 1, which provides a solubility assessment of amorphous API in 12 solvents. The solubility of API-0142684 in water after temperature cycling between 40° C. and 5° C. for 2 days is ˜50 mg/ml.

A short description of data set [2]: Solubility in water after temperature cycling between 40° C. and 5° C. The note with it: thermodynamic from solid, cycling between 40° C. and 5° C. for 2 days. Here is the method: as §1
Data set [3] can be described thus: Solubility in screen solvents derived from loading in solvent and dissolution. To be noted: organic solvent or mixture, thermodynamic from solid. An excerpt:
They were selected based on a diverse range of properties including dielectric constants, boiling points, and H-bonding that are important to crystallization and crystal-form discovery. The values in TABLE 2 are derived from ACH-0142684 loading in solvent and dissolution. The symbol † indicates the solubility value is found in TABLE 1.

The nature of data set [4]: Vacuum oven drying and re-analysis by PXRD for form change. Here is the method:
PXRD diffractograms were acquired using either a Bruker D8 Discovery diffractometer with a HI-STAR GADDS detector or PANalytical X′Pert Pro diffractometer on Si zero-background wafers. All diffractograms were collected using Cu Kα (45 kV/40 mA) radiation and a step size of 0.02° 2θ unless noted otherwise.
A sample of Polymorph A was dried in a vacuum oven at 55° C. overnight with a small flow of nitrogen. FIG. 1 is a graph showing the results of X-ray powder diffraction analysis of pre-dried (lower trace) and post-dried (upper trace) Polymorph A sample. FIG. 2 is a graph showing the results of differential scanning calorimetry overlay of a pre-dried (lower trace) and post-dried (upper trace) Polymorph A sample. FIG. 3 is a graph showing the results of thermogravimetric analysis of the Form A polymorph.
A small amount of Polymorph B was dried in a vacuum oven at 50° C. for 16 hours and the sample was re-analyzed by PXRD to observe if there were any form changes.

The nature of data set [5]: Competitive ripening study between Polymorphs A and G. To be noted: slurry in 2-propanol, room temperature, sample isolated after 48 hours. The method, then: A competitive ripening study was conducted between Polymorphs A and G at room temperature to determine their relative stabilities. Approximately 5 mg of Polymorphs A and G were added to a 2-mL HPLC vial containing 0.5 mL of 2-propanol. The suspension was stirred at room temperature for two days. Aliquots of the slurry were filtered after 20 and 48 hours. The isolated solids were analyzed by PXRD to determine any form conversion.

A short description of data set [6]: Crystallization screening (temperature cycling, cooling, evaporation, vapor diffusion), form stability. To be noted: 48 solvents/mixtures. The method, then:
Crystallization experiments were conducted in 48 solvents and aqueous mixtures using the following three crystallization modes:
Temperature-cycled ripening of API slurries between 5-40° C. for 48 hours;
Cooling of saturated solutions prepared at RT to 5° C. (24 hours);
Slow evaporation of saturated solutions at RT.In addition, 10 vapor diffusion experiments were also conducted (Table 4) at RT. These solvent systems were selected based on API solubility, and the miscibility and boiling points of solvents and anti-solvents.
All solid outputs from the screen were isolated and analyzed by FT-Raman spectroscopy and/or PXRD. The samples were then sorted into polymorphs based on Raman spectral match. Representative samples from each of the polymorphs were further analyzed by additional techniques (PXRD, DSC, TGA-IR, PLM, etc.) as appropriate and as sample quantity permitted.
Characterization data and more detailed discussion of the different crystal forms are summarized in the following sections. In TABLES 3 and 4, A, B, C, D, or E, etc. indicates the respective crystalline polymorph obtained. “Amorphous” indicates an amorphous solid was obtained, (-) indicates the experiment was not performed, and a blank space indicates no solid was obtained. The screening study led to one hydrated form (Polymorph A) and multiple solvated forms (Polymorph s B-E). […]

“Also recorded” adds a separate entry of the source.

As for `COc1ccc2c(O[C@@H]3C[C@H]4C(=O)N[C@]5(C(=O)[N-]S(=O)(=O)C6CC6)C[C@H]5/C=C\CCCCC[C@H](CC(=O)N5CCCC(F)(F)C5)C(=O)N4C3)cc(-c3nc(C(C)C)cs3)nc2c1C.[Na+]` [ACH-0142684 sodium salt], the solubility (usually how much of the substance goes into solution per volume) in data set [1] (organic solvent or mixture, ACN) is 1 to 1.2 mg/mL; in data set [1] (organic solvent or mixture, DCM) it was 49 to 98 mg/mL; in data set [1] (organic solvent or mixture, DMSO), 97 to 129 mg/mL; in data set [1] (organic solvent or mixture, EtOAc) it was under 1.02 mg/mL; in data set [1] (organic solvent or mixture, IPA), 1.1 to 1.3 mg/mL; in data set [1] (organic solvent or mixture, MTBE), under 0.93 mg/mL. In addition, the solubility is 92 to 123 mg/mL in data set [1] (organic solvent or mixture, MeOH); 100 to 133 mg/mL in data set [1] (organic solvent or mixture, TFE); 9.2 to 18.4 mg/mL in data set [1] (organic solvent or mixture, THF); under 1.04 mg/mL in data set [1] (organic solvent or mixture, Toluene); 5.7 to 14 mg/mL in data set [1] (organic solvent or mixture, acetone); under 0.99 mg/mL in data set [1] (Water). In addition, the solubility at 2 days in data set [2] is about 50 mg/mL.

`COc1ccc2c(O[C@@H]3C[C@H]4C(=O)N[C@]5(C(=O)NS(=O)(=O)C6CC6)C[C@H]5/C=C\CCCCC[C@H](CC(=O)N5CCCC(F)(F)C5)C(=O)N4C3)cc(-c3nc(C(C)C)cs3)nc2c1C` [ACH-0142684]: the solubility is under 50 mg/mL in data set [3] (1,4-Dioxane); under 50 mg/mL in data set [3] (1-Butanol); over 80 mg/mL in data set [3] (1-Methoxy-2-propanol); under 50 mg/mL in data set [3] (1-propanol); under 50 mg/mL in data set [3] (2-Butanone); under 90 mg/mL in data set [3] (2-Methoxyethyl ether). The solubility is over 93 mg/mL in data set [3] (2-methoxyethanol); under 95 mg/mL in data set [3] (2-propanol with 20 vol % water, 2-propanol: 20 vol % Water); under 50 mg/mL in data set [3] (2-propanol: 5 vol % Water); under 50 mg/mL in data set [3] (2-propanol: 10 vol %); under 50 mg/mL in data set [3] (4-Methyl-2-pentanone); under 50 mg/mL in data set [3] (Acetone: 5 vol % Water). In addition, the solubility in data set [3] (Acetone: 10 vol % Water) is under 99 mg/mL; in data set [3] (Acetonitrile: 5 vol % Water) it was under 50 mg/mL; in data set [3] (Acetonitrile: 10 vol %), under 50 mg/mL; in data set [3] (Chlorobenzene), under 50 mg/mL; in data set [3] (Chloroform) it was over 153 mg/mL; in data set [3] (Cyclohexane), under 50 mg/mL. In addition, the solubility in data set [3] (Cyclohexanone) is over 87 mg/mL; in data set [3] (DMF), over 93 mg/mL; in data set [3] (Dimethyl Carbonate), under 50 mg/mL; in data set [3] (Dioxane: 10 vol % Water), over 93 mg/mL; in data set [3] (EtOAc:pentane (1:1)), under 50 mg/mL; in data set [3] (EtOAc:pentane (1:4)) it was under 50 mg/mL. Besides, the solubility is under 50 mg/mL in data set [3] (EtOAc:pentane (1:10)); under 72 mg/mL in data set [3] (EtOH); under 50 mg/mL in data set [3] (Isopropyl acetate); under 50 mg/mL in data set [3] (Isopropyl ether); under 50 mg/mL in data set [3] (MeOAc); over 177 mg/mL in data set [3] (Methanol: 5 vol % Water). Further, the solubility in data set [3] (Methanol: 10 vol % Water) was over 85 mg/mL; in data set [3] (Pentane), under 50 mg/mL; in data set [3] (THF: 5 vol % Water) it was over 85 mg/mL; in data set [3] (THF: 10 vol % Water), over 107 mg/mL; in data set [3] (acetone with 20 vol % water, Acetone: 20 vol % Water) it was under 96 mg/mL; in data set [3] (nitromethane), under 50 mg/mL.

Consider `COc1ccc2c(O[C@@H]3C[C@H]4C(=O)N[C@]5(C(=O)[N-]S(=O)(=O)C6CC6)C[C@H]5/C=C\CCCCC[C@H](CC(=O)N5CCCC(F)(F)C5)C(=O)N4C3)cc(-c3nc(C(C)C)cs3)nc2c1C.[Na+]` [Polymorph B], for which the “Form stability on drying (PXRD of dried sample)” value in data set [4] (vacuum oven at 50° C. for 16 hours) is “does not show any change in form but the peaks appear to be broader”.

`COc1ccc2c(O[C@@H]3C[C@H]4C(=O)N[C@]5(C(=O)[N-]S(=O)(=O)C6CC6)C[C@H]5/C=C\CCCCC[C@H](CC(=O)N5CCCC(F)(F)C5)C(=O)N4C3)cc(-c3nc(C(C)C)cs3)nc2c1C.[Na+]` [Polymorph A]: the “Form stability on drying (PXRD of dried sample)” value in data set [4] (vacuum oven at 55° C. overnight, small flow of nitrogen) is given as “does not show any change in form or crystallinity”. Further, the “Relative stability of Polymorphs A and G (PXRD of isolated solids)” value in data set [5] was “the more stable form at room temperature”. Besides, the “Form stability indicated by crystallization screen outcome” value in data set [6] is listed as “the most stable form at the crystallization conditions studied; also recorded: stable form at/around room temperature”.

(Values after patent US9085607B2, “ACH-0142684 sodium salt polymorph, composition including the same, and method of manufacture thereof” (Achillion Pharmaceuticals Inc., priority 2013, dated 2015).)
